Test results published in patent US9062899B2, “Pairs of working substances for absorption heat pumps, absorption refrigeration machines and heat transformers” (BASF SE, priority 2004, dated 2015).

Legend:
[1] = partial pressure of water over aqueous 2-hydroxyethylammonium formate solution, FTIR spectroscopy in the gas phase; assay type: physicochemical
Procedure: For this purpose, the partial pressure of water over an aqueous 2-hydroxyethylammonium formate solution was determined at a customary phase equilibrium temperature (by means of FTIR spectroscopy in the gas phase).

[2] = miscibility of ionic liquid with working substance water; assay type: physicochemical

SMILES	factor by which the vapor pressure of water is reduced on dissolution in the ionic liquid [1]	partial pressure of water over the solution ([1]; 30.5° C., 84% by weight of 2-hydroxyethylammonium formate and 16% by weight of water, water itself about 40 mbar)	partial pressure of water over the solution ([1]; 34° C., 87% by weight of 2-hydroxyethylammonium formate and 13% by weight of water, water itself about 50 mbar)	miscibility with water [2]
NCCO.O=CO [2-hydroxyethylammonium formate]	4	about 10 mbar	about 12 mbar	
CCn1cc[n+](C)c1.O=S(=O)([O-])C(F)(F)F [ethylmethylimidazolium triflate]				can be mixed with water
